Assay results from patent US20050187608A1, “Radioprotective compound coating for medical devices” (priority 2004, published 2005).
Marks after values point to notes of the source that are not given here.

Tests used:
[1] = In vivo release kinetics from rapamycin/mycophenolic acid coatings, porcine pharmacokinetics studies
Excerpt: The topcoat is two hundred micro grams.

[2] = system: human coronary artery smooth muscle cells; assay: Anti-proliferative activity of rapamycin with varying concentrations of mycophenolic acid; format: cell-based; conditions: non-synchronized cultured human coronary artery smooth muscle cells, two percent fetal bovine serum, mycophenolic acid zero to one thousand nano molar, FIG. 52
Excerpt: The multiple curves represent various concentrations of mycophenolic acid ranging from zero to one thousand nano molar concentrations. […] This potentiation observed in cultured coronary artery smooth muscle cells preferably translates to an enhancement in anti-restenotic efficacy following vascular injury and a reduction in the required amount of either agent to achieve the desired anti-restenotic effect.

[3] = system: neointimal hyperplasia and inflammation; assay: Rapamycin compared with dexamethasone delivered from a stent; format: in vivo; conditions: for Inflammation Score: uncoated 0.97 ± 1.00; for Neointimal Area: uncoated 5.24 ± 1.65; for % Area Stenosis: uncoated 54 ± 19
Excerpt: Dexamethasone, a potent steroidal anti-inflammatory agent, was used as a reference standard.

[4] = system: human coronary artery smooth muscle cell proliferation; assay: In vitro cell culture study of coronary artery smooth muscle cell proliferation; format: cell-based
Excerpt: FIG. 51 is a graph of the inhibition of coronary artery smooth muscle cells by trichostatin A in a cell culture study.

Row | SMILES | Inflammation Score [3] | Neointimal Area [3] | % Area Stenosis [3] | other results
1 | COc1c(C)c2c(c(O)c1C/C=C(\C)CCC(=O)O)C(=O)OC2 [mycophenolic acid] |  |  |  | in vivo release of mycophenolic acid from the basecoat ([1]; EVA/BMA basecoat 600 μg with 30% rapamycin and 30% mycophenolic acid, BMA topcoat 0/100/200 μg, FIG. 54): elutes more completely over a shorter duration than the rapamycin; effect on the anti-proliferative rapamycin dose response curve [2]: potentiates the anti-proliferative activity of rapamycin
2 | CO[C@H]1C[C@@H]2CC[C@@H](C)[C@@](O)(O2)C(=O)C(=O)N2CCCC[C@H]2C(=O)O[C@H]([C@H](C)C[C@@H]2CC[C@@H](O)[C@H](OC)C2)CC(=O)[C@H](C)/C=C(\C)[C@@H](O)[C@@H](OC)C(=O)[C@H](C)C[C@H](C)/C=C/C=C/C=C/1C [Rapamycin, rapamycin] | 0.13 ± 0.19 | 2.47 ± 0.94* mm^2 | 26 ± 10 % | in vivo release rate ([1]; PVDF basecoat 600 μg, rapamycin and mycophenolic acid equally two thirds by weight, 200 μg PVDF topcoat, FIG. 56): slower release rate than that of mycophenolic acid
3 | CC(/C=C/C(=O)NO)=C\[C@@H](C)C(=O)c1ccc(N(C)C)cc1 [trichostatin A] |  |  |  | inhibition of human coronary artery smooth muscle cell proliferation ([4]; FIG. 51): completely inhibit; IC50 ([4]; human coronary artery smooth muscle cells, read-out: anti-proliferative IC50): ~6 nM
4 | C[C@@H]1C[C@H]2[C@@H]3CCC4=CC(=O)C=C[C@]4(C)[C@@]3(F)[C@@H](O)C[C@]2(C)[C@@]1(O)C(=O)CO [Dexamethasone, dexamethasone] | 0.39 ± 0.24 | 4.31 ± 3.02 mm^2 | 45 ± 31% | 
